Test results as given in patent US11639368B2, “Method for preventing and treating hyperpermeability” (Apeptico Forschung UND E[…], priority 2009, dated 2023).
“Also recorded” adds a separate entry of the source.

What was measured:
[1] = system: epithelial sodium channel (ENaC); test: Expression of the epithelial sodium channel by real-time PCR in H441 cells; format: cell-based, human; conditions: 50 μg/ml of peptide, H441 epithelial cells of the lungs
Experimental: (§1) Human epithelial cells of the lungs of type H441 were acquired from the company ATTC.
(§2) Epithelial cells of the lungs of type H441 were cultivated in a manner common in the laboratory in a commercial RPMI 1640 medium with the additives 2 mM L-glutamine, 1.5 g/l of sodium carbonate, 4.5 g/l of glucose, 10 mM HEPES buffer pH 7.4, 10% bovine serum.
Verification of the Expression of the Epithelial Sodium Channel
In the cultivated epithelial cells, the expression of the sodium channel (ENaC) was determined by means of “real-time PCR”.

myosin light chain = test: Phosphorylation of the myosin light chain (protein blot, densitometry); format: cell-based; conditions: human endothelial lung cells; for increase in the content of phosphorylated myosin light chain by listeriolysin: 250 ng/ml of listeriolysin, 50 μg/ml of peptide
Text: Human endothelial cells of the lungs, isolated from capillaries of the lungs, were acquired from the company Lonza.
(§3) The microbial toxins listeriolysin (LLO) and pneumolysin (PLY) were acquired from the University of Giessen.
Human endothelial cells of the lungs, isolated from capillaries of the lungs, were cultivated in a manner common in the laboratory.
Determination of Phosphorylation of the Myosin Light Chain
For the determination of phosphorylation of the myosin light chain and the influence of the peptide SEQ ID No. 1 on the phosphorylation, the previously cultivated human endothelial cells of the lungs were washed with phosphate buffer pH 7.4, which contained 1 mM orthovanadate. The cell contents was lysed by incubation of the cells with a solution of 20 mM tris buffer (pH 7.4), 150 mM mol/1 of NaCl, 1 mM EDTA, 1 mM EGTA, 1% Triton X-100, 2.5 mM sodiumpyrophosphate, 1 mM betaglycerophosphate, 1 mM sodiumvanadate, 1 μg/ml of leupeptine, 1 mM phenylmethylsulfonylfluoride. In addition, the cells were digested with ultrasound. The cell lysate was centrifuged in order to obtain the soluble components. The soluble cell lysate was subsequently applied to denaturing sodium dodecyl sulfate polyacrylamide gel electrophoresis in a manner common in the laboratory, and the proteins were separated according to their masses. Thereafter, the proteins were transferred onto nitrocellulose membranes. The protein blots were treated with a solution of 0.1% Tween 20 and 5% dry milk powder for 1 hour in a manner common in the laboratory. Subsequently, the protein blots were incubated with antibodies directed against either the myosin light chain or the phosphorylated myosin light chain.
In order to make either the myosin light chain or the phosphorylated myosin light chain visible, the antibodies were made visible on diagnostic film using chemiluminescence in a manner common in the laboratory. The signal strength was determined with densitometry, and the ratio of myosin light chain to phosphorylated myosin light chain was determined.

[2] = system: arterial endothelial cells; test: Reactive oxygen molecules in endothelial cells under oxygen deficiency, measured by EPR; format: cell-based; conditions: oxygen deficiency (0.1% oxygen, hypoxic gas mixture), 50 μg/ml of peptide
Experimental: Cell Culture of Endothelial Cells
For the generation of reactive oxygen molecules, arterial endothelial cells were cultivated in an oxygen-deficient gas mixture of 0.1% oxygen, 5% […] and 94.9% nitrogen (hypoxic gas mixture). In control experiments, the gas concentrations were 21% oxygen, 5% […] and 74% nitrogen (normoxic gas mixture).
After 90 minutes under oxygen-deficient conditions, the endothelial cells were cultivated with 21% oxygen for a further 30 minutes. Thereafter, 20 μl of a solution consisting of 20 uM 1-hydroxy-3-methoxycarbonyl-2,2,5,5-tetramethylpyrrolidine HCl (CHM), 20 μM DPBS, 25 μM desferrioxamine and 5 μM diethyldithiocarbamate as well as 2 μl of DMSO were added to the cells.
Trypsinization of the Cells.
Following cell culture, the cells were individualized in a manner common in the laboratory by adding a trypsin solution. The endothelial cells were washed and suspended in 35 μl of a solution consisting of DPBS and 25 μM desferrioxamine and 5 μM diethyldithiocarbamate.
Measurement of the Electron Paramagnetic Resonance (EPR)
The determination of the electron paramagnetic resonance (EPR), also called electron spin resonance, serves the investigation of paramagnetic substances, e.g. for detection of unpaired electrons in reactive oxygen molecules (radicals of the oxygen). […]

influenza A virus = test: Course of disease in mice with viral lung infection; format: in vivo, BALB/c mice; conditions: influenza A infected mice
Experimental: The following animal study groups were examined in respect of the effect of peptide SEQ ID No. 1 on a viral lung infection:
Group 1. Negative control (PBS via nasal).
Group 2. Positive control (infection with approx. 2,000 units of influenza A virus via nasal).
Group 3. Test group (infection with approx. 2,000 units of influenza A virus via nasal, as well as intratracheal administration of 10 μg of peptide SEQ ID No. 1).
In each group, 6 BALB/c mice were used.
The following treatment scheme was followed:
Group 1: Administration of PBS via nasal.
Group 2: Infection of the mice with influenza virus A via nasal.
Group 3: Infection of the mice with influenza virus A via nasal and administration of peptide SEQ ID No. 1.
Days of treatment 0, 2, 4, 6, 8:
Group 1: Intratracheal administration of PBS.
Group 2: Intratracheal administration of PBS.
Group 3: Intratracheal administration of peptide SEQ ID No. 1.
Days of treatment 0 to 10:
Daily observation of body temperature, body weight and survival rate of the test animals.

[3] = system: human endothelial cells of the lungs; test: Toxin-induced hyperpermeability, transendothelial electric resistance (ECIS), endothelial cells; format: cell-based; conditions: 500 ng/ml of listeriolysin, 50 μg/ml of peptide
[4] = system: Human epithelial cells of the lungs of type H441; test: Toxin-induced hyperpermeability, electric resistance (ECIS), epithelial cells; format: cell-based; conditions: 1 μg/ml of listeriolysin, 50 μg/ml of peptide
Experimental: as §1, §3
as §2, with “serum. The ECIS experiments took place in serum-free medium.” for “serum.”
In order to cause hyperpermeability, i.e. injuries of the endothelial cells and epithelial cells, the human epithelial cells of the lungs as well as the human endothelial cells of the lungs were cultivated in a manner common in the laboratory up to the formation of a continuous cell layer, and subsequently, the toxins listeriolysin or pneumolysin, respectively, were added.

[5] = system: hyperpermeability of the lungs of mice; test: Pneumolysin-induced hyperpermeability and acute lung damage in mice (Evans blue, leukocytes in bronchoalveolar liquid); conditions: 250 ng of pneumolysin and 50 μg of peptide per mouse intratracheal, 5.5 hours
[6] = Lavage-induced large animal ARDS model; format: in vivo, pigs
Experimental: Material & methods: With the consent of the competent animal protection commission, lung damage was induced in two pigs (25 kg) under general anesthesia by surfactant depletion (four-time bronchoalveolar lavage, 30 ml/kg of body weight each). Subsequently, 1 mg/kg of body weight AP301 (peptide SEQ ID No. 1) was endotracheally applied. Animal 1 (1) received a deep tracheal injection of the overall dose, while for animal 2 (2), nebulization of the same dosage over 30 min was performed. Thereafter, there was a five-hour ventilation period. The arterial oxygen partial pressure (paO2) was recorded using an intra-aortic real-time measuring probe (FOXY, Ocean Optics, USA) validated in advance. Spirometry and hemodynamics were permanently registered as well as measurements with the PiCCO technology performed at half-hour intervals.
The ventilation settings were constantly kept in the non-protective range (Pmax 40 mbar, tidal volume≥10 ml/kg of body weight, PEEP≤10 mbar, frequency 25-35/min) in order to avoid therapeutic effects. […] 162.8 mmHg (1) or 224.6 mmHg (2), respectively. With nebulization of AP301, this occurred delayed compared to the deep tracheal application, however, it was more pronounced.

Compound	expression of the sodium channel ENaC (mRNA) [1]	increase in the content of phosphorylated myosin light chain by listeriolysin (myosin light chain)	formation of reactive oxygen molecules by the endothelial cells [2]	reduction of body weight (influenza A virus; 10 μg of peptide intratracheal on days 0, 2, 4, 6, 8, within 10 days)	body temperature after 7 days (influenza A virus; 10 μg of peptide intratracheal, after 7 days) [°C]	mortality after 10 days (influenza A virus; 10 μg of peptide intratracheal, fraction of test animals, 10 days)	body temperature subsequently (after day 7) (influenza A virus; 10 μg of peptide intratracheal, recovery after day 7) [°C]	decrease in body weight (overall conclusion) (influenza A virus; in words)	lowering of the body temperature (overall conclusion) (influenza A virus; in words)	survival rate (overall conclusion) (influenza A virus; in words)	hyperpermeability caused by the toxin listeriolysin (electric resistance) [3]	content of phosphorylated myosin light chain, peptide alone (myosin light chain; 50 μg/ml of peptide without toxin)	hyperpermeability caused by the toxin listeriolysin (electric resistance) [4]	number of leukocytes in the bronchoalveolar liquid [5]	toxin-mediated development of hyperpermeability (Evans blue dye in lung tissue) [5]	paO2 increase, max. ([6]; animal 1, 1 mg/kg deep tracheal injection) [mmHg]	paO2 increase, max. ([6]; animal 2, 1 mg/kg nebulization over 30 min) [mmHg]	duration of continuous improvement of oxygenation ([6]; both pigs, 1 mg/kg endotracheally)	reduction of the extra-vascular lung water compared to the initial value following surfactant depletion ([6]; pigs, 1 mg/kg endotracheally, PiCCO)	undesired hemodynamic effects during application of the drug ([6]; pigs, 1 mg/kg of body weight endotracheally)
CGQREAPAGAAAKPWYC [peptide SEQ ID No. 3, reference compound]	no substantial increase	no influence	does not result in an inhibition	–	–	–	–	–	–	–	–	–	–	–	–	–	–	–	–	–
C[C@@H]1NC(=O)CNC(=O)[C@H](CCC(=O)O)NC(=O)[C@@H]2CCCN2C(=O)[C@H]([C@@H](C)O)NC(=O)[C@H](CCC(=O)O)NC(=O)[C@H](CCCNC(=N)N)NC(=O)[C@H](CCC(N)=O)NC(=O)CNC(=O)[C@@H](N)CSSC[C@@H](C(=O)O)NC(=O)[C@H](Cc2ccc(O)cc2)NC(=O)[C@H](Cc2c[nH]c3ccccc23)NC(=O)[C@@H]2CCCN2C(=O)[C@H](CCCCN)NC(=O)[C@H](C)NC(=O)[C@H](CCC(=O)O)NC1=O [peptide SEQ ID No. 1, CGQRETPEGAEAKPWYC]	triplication; also recorded: substantial increase	inhibits	no reactive oxygen molecules are formed	approx. 10%	35	⅓	37	reduces the decrease	reduces the lowering	clearly increased	inhibited	no influence	inhibited	clear reduction; also recorded: clearly less leukocytes	inhibition	162.8	224.6	about 1.5 hours	15.8-52.5%	no undesired hemodynamic effects
